Measurements taken from patent US12491170B2, “Stable treprostinil prodrugs” (United Therapeutics Corporation, priority 2020, dated 2025).
Where two headings read alike, the source gives them in different places. Blank lines part the entries; values can stand above or below the molecule they belong to.

Legend:
[1] = rat
[2] = Stability in liver microsomes, rat
[3] = Stability in liver microsomes, dog
[4] = Stability in liver microsomes, human; conditions: for AUC: human
[5] = Stability in cryopreserved hepatocytes, dog; conditions: for AUC: dog
[6] = Stability in cryopreserved hepatocytes, rat; conditions: for AUC: rat
[7] = Stability in cryopreserved hepatocytes, human; conditions: for AUC: human
[8] = Stability in human subcutaneous skin homogenate; conditions: for AUC: human
[9] = dog

- AUC [1]: 46.08 µmol·min/L
- Trep Concentration 0 min [2]: 0.849 µM
- Trep Concentration 10 min [2]: 0.784 µM
- Trep Concentration 20 min [2]: 0.765 µM
- Trep Concentration 30 min [2]: 0.709 µM
- Trep Concentration 60 min [2]: 0.811 µM
- Trep Concentration 0 min [3]: 0.307 µM
- Trep Concentration 10 min [3]: 0.544 µM
- Trep Concentration 20 min [3]: 0.678 µM
- Trep Concentration 30 min [3]: 0.729 µM
- Trep Concentration 60 min [3]: 0.777 µM
- Trep Concentration 0 min [4]: 0.908 µM
- Trep Concentration 10 min [4]: 0.679 µM
- Trep Concentration 20 min [4]: 0.564 µM
- Trep Concentration 30 min [4]: 0.463 µM
- Trep Concentration 60 min [4]: 0.338 µM
- AUC [4]: 31.30 µmol·min/L
- Trep Concentration (μM) 0 min [5]: 0.00351 µM
- Trep Concentration (μM) 15 min [5]: 0.295 µM
- Trep Concentration (μM) 30 min [5]: 0.273 µM
- Trep Concentration (μM) 60 min [5]: 0.262 µM
- Trep Concentration (μM) 120 min [5]: 0.262 µM
- AUC [5]: 30.24 µmol·min/L
- Trep Concentration (μM) 0 min [6]: 0.0862 µM
- Trep Concentration (μM) 15 min [6]: 0.512 µM
- Trep Concentration (μM) 30 min [6]: 0.426 µM
- Trep Concentration (μM) 60 min [6]: 0.441 µM
- Trep Concentration (μM) 120 min [6]: 0.455 µM
- AUC [6]: 51.41 µmol·min/L
- Trep Concentration (μM) 0 min [7]: 0.0156 µM
- Trep Concentration (μM) 15 min [7]: 0.58 µM
- Trep Concentration (μM) 30 min [7]: 0.47 µM
- Trep Concentration (μM) 60 min [7]: 0.475 µM
- Trep Concentration (μM) 120 min [7]: 0.461 µM
- AUC [7]: 54.60 µmol·min/L
- Trep Concentration 0 min [8]: 0 µM
- Trep Concentration 30 min [8]: 0.486 µM
- Trep Concentration 60 min [8]: 0.694 µM
- Trep Concentration 120 min [8]: 0.848 µM
- AUC [8]: 71.25 µmol·min/L
- AUC [9]: 39.99 µmol·min/L
SMILES: CCCCCC(CCC1C(O)CC2Cc3c(cccc3OCC(=O)O)CC21)OC(=O)COc1ccc(O)cc1 (stereo not drawn) [LIV]

- AUC [1]: 0.41 µmol·min/L
- Trep Concentration 0 min [2]: 0 µM
- Trep Concentration 10 min [2]: 0.00512 µM
- Trep Concentration 20 min [2]: 0.00637 µM
- Trep Concentration 30 min [2]: 0.009 µM
- Trep Concentration 60 min [2]: 0.0074 µM
- Trep Concentration 0 min [3]: 0.17 µM
- Trep Concentration 10 min [3]: 0.325 µM
- Trep Concentration 20 min [3]: 0.433 µM
- Trep Concentration 30 min [3]: 0.451 µM
- Trep Concentration 60 min [3]: 0.558 µM
- Trep Concentration 0 min [4]: 0.137 µM
- Trep Concentration 10 min [4]: 0.171 µM
- Trep Concentration 20 min [4]: 0.174 µM
- Trep Concentration 30 min [4]: 0.163 µM
- Trep Concentration 60 min [4]: 0.125 µM
- AUC [4]: 9.27 µmol·min/L
- Trep Concentration (μM) 0 min [5]: 0 µM
- Trep Concentration (μM) 15 min [5]: 0.0727 µM
- Trep Concentration (μM) 30 min [5]: 0.111 µM
- Trep Concentration (μM) 60 min [5]: 0.19 µM
- Trep Concentration (μM) 120 min [5]: 0.258 µM
- AUC [5]: 19.88 µmol·min/L
- Trep Concentration (μM) 0 min [6]: 0 µM
- Trep Concentration (μM) 15 min [6]: 0.00943 µM
- Trep Concentration (μM) 30 min [6]: 0.0122 µM
- Trep Concentration (μM) 60 min [6]: 0.0182 µM
- Trep Concentration (μM) 120 min [6]: 0.0273 µM
- AUC [6]: 2.05 µmol·min/L
- Trep Concentration (μM) 0 min [7]: 0 µM
- Trep Concentration (μM) 15 min [7]: 0.192 µM
- Trep Concentration (μM) 30 min [7]: 0.179 µM
- Trep Concentration (μM) 60 min [7]: 0.217 µM
- Trep Concentration (μM) 120 min [7]: 0.237 µM
- AUC [7]: 23.78 µmol·min/L
- Trep Concentration 0 min [8]: 0 µM
- Trep Concentration 30 min [8]: 0.0159 µM
- Trep Concentration 60 min [8]: 0.0303 µM
- Trep Concentration 120 min [8]: 0.0592 µM
- AUC [8]: 3.62 µmol·min/L
- AUC [9]: 25.82 µmol·min/L
SMILES: CCCCCC(CCC1C(O)CC2Cc3c(cccc3OCC(=O)O)CC21)OC(=O)C(C)(C)C (stereo not drawn) [XLIX]

- AUC [1]: 30.87 µmol·min/L
- Trep Concentration 0 min [2]: 0.26 µM
- Trep Concentration 10 min [2]: 0.43 µM
- Trep Concentration 20 min [2]: 0.525 µM
- Trep Concentration 30 min [2]: 0.586 µM
- Trep Concentration 60 min [2]: 0.553 µM
- Trep Concentration 0 min [3]: 0.971 µM
- Trep Concentration 10 min [3]: 0.961 µM
- Trep Concentration 20 min [3]: 0.934 µM
- Trep Concentration 30 min [3]: 0.915 µM
- Trep Concentration 60 min [3]: 0.743 µM
- Trep Concentration 0 min [4]: 1.17 µM
- Trep Concentration 10 min [4]: 1.01 µM
- Trep Concentration 20 min [4]: 0.837 µM
- Trep Concentration 30 min [4]: 0.736 µM
- Trep Concentration 60 min [4]: 0.389 µM
- AUC [4]: 44.88 µmol·min/L
- Trep Concentration (μM) 0 min [5]: 0.124 µM
- Trep Concentration (μM) 30 min [5]: 0.698 µM
- Trep Concentration (μM) 60 min [5]: 0.599 µM
- Trep Concentration (μM) 120 min [5]: 0.53 µM
- AUC [5]: 71.21 µmol·min/L
- Trep Concentration (μM) 0 min [6]: 0.0159 µM
- Trep Concentration (μM) 15 min [6]: 0.506 µM
- Trep Concentration (μM) 30 min [6]: 0.48 µM
- Trep Concentration (μM) 60 min [6]: 0.424 µM
- Trep Concentration (μM) 120 min [6]: 0.391 µM
- AUC [6]: 49.32 µmol·min/L
- Trep Concentration (μM) 0 min [7]: 0.113 µM
- Trep Concentration (μM) 15 min [7]: 0.725 µM
- Trep Concentration (μM) 30 min [7]: 0.654 µM
- Trep Concentration (μM) 60 min [7]: 0.589 µM
- Trep Concentration (μM) 120 min [7]: 0.527 µM
- AUC [7]: 68.75 µmol·min/L
- Trep Concentration 0 min [8]: 0.0045 µM
- Trep Concentration 30 min [8]: 0.545 µM
- Trep Concentration 60 min [8]: 0.741 µM
- Trep Concentration 120 min [8]: 0.954 µM
- AUC [8]: 78.38 µmol·min/L
- AUC [9]: 53.25 µmol·min/L
SMILES: CCCCCC(CCC1C(O)CC2Cc3c(cccc3OCC(=O)O)CC21)OC(=O)CC (stereo not drawn) [LV]

- AUC [1]: 31.40 µmol·min/L
- Trep Concentration 0 min [2]: 0.27 µM
- Trep Concentration 10 min [2]: 0.39 µM
- Trep Concentration 20 min [2]: 0.46 µM
- Trep Concentration 30 min [2]: 0.53 µM
- Trep Concentration 60 min [2]: 0.73 µM
- Trep Concentration 0 min [3]: 0.21 µM
- Trep Concentration 10 min [3]: 0.32 µM
- Trep Concentration 20 min [3]: 0.43 µM
- Trep Concentration 30 min [3]: 0.48 µM
- Trep Concentration 60 min [3]: 0.75 µM
- Trep Concentration 0 min [4]: 0.02 µM
- Trep Concentration 10 min [4]: 0.038 µM
- Trep Concentration 20 min [4]: 0.038 µM
- Trep Concentration 30 min [4]: 0.03 µM
- Trep Concentration 60 min [4]: 0.061 µM
- AUC [4]: 2.38 µmol·min/L
- Trep Concentration (μM) 0 min [5]: 0.0124 µM
- Trep Concentration (μM) 30 min [5]: 0.609 µM
- Trep Concentration (μM) 60 min [5]: 0.533 µM
- Trep Concentration (μM) 120 min [5]: 0.548 µM
- AUC [5]: 62.94 µmol·min/L
- Trep Concentration (μM) 0 min [6]: 0.128 µM
- Trep Concentration (μM) 15 min [6]: 0.693 µM
- Trep Concentration (μM) 30 min [6]: 0.635 µM
- Trep Concentration (μM) 60 min [6]: 0.564 µM
- Trep Concentration (μM) 120 min [6]: 0.53 µM
- AUC [6]: 66.92 µmol·min/L
- Trep Concentration (μM) 0 min [7]: 0 µM
- Trep Concentration (μM) 15 min [7]: 0.223 µM
- Trep Concentration (μM) 30 min [7]: 0.365 µM
- Trep Concentration (μM) 60 min [7]: 0.466 µM
- Trep Concentration (μM) 120 min [7]: 0.540 µM
- AUC [7]: 48.73 µmol·min/L
- Trep Concentration 0 min [8]: 0 µM
- Trep Concentration 30 min [8]: 0.6 µM
- Trep Concentration 60 min [8]: 0.93 µM
- Trep Concentration 120 min [8]: 1.07 µM
- AUC [8]: 91.95 µmol·min/L
- AUC [9]: 29.40 µmol·min/L
SMILES: CCCCCC(CCC1C(O)CC2Cc3c(cccc3OCC(=O)O)CC21)OP(=O)(O)O (stereo not drawn) [VI]
